Laboratory results as given in US20250207124A1, “COMPOSITIONS AND METHODS FOR EXPRESSING SYNTHETIC GENETIC ELEMENTS ACROSS DIVERSE MICROORGANISMS” (priority 2022, published 2025).

Test system: E. coli in vitro translation reaction
Assay: PURExpress in vitro transcription/translation of a GFP reporter
Conditions: read-out: half-maximal inhibition (IC50) of translation of a GFP reporter; PURExpress (NEB) protein synthesis system; DNA encoding eGFP; endpoint fluorescence after 4 hours
Method: The PureExpress kit (NEB) was used in accordance with manufacture's protocol to assay for the in-vitro production of GFP. For each sample a 25 uL reaction was performed containing 100 ng DNA or 500 ng RNA template encoding GFP (transcription in this kit is via T7 RNA Polymerase), plus indicated amounts of purified compound dissolved in H2O. Reactions were loaded into a white 384 well plate and production of fluorescent GFP protein was monitored with a Synergy Ht Plate Reader (Bio-tek). Fluorescence reached an endpoint at 4 hours. To produce DNA template, a PCR product of the pT7-GFP gene was amplified (Kapa HiFi Polymerase) and purified by gel electrophoresis followed by gel purification (Qiagen). To produce RNA template, the DNA PCR product was transcribed with the HiScribe T7 High Yield RNA Synthesis kit (NEB), treated with DNasel, and purified by the Monarch RNA Purification Kit (NEB). RNA was quantified by Qubit.
To quantify IC50 values for translation inhibition activity (FIG. 14A), raw fluorescence values were linearly converted to percent activity. […] Graphpad Prism was used to plot a hyperbolic non-linear regression.

## CC[C@H]1OC(=O)[C@H](C)[C@@H](O[C@H]2C[C@@](C)(OC)[C@@H](O)[C@H](C)O2)[C@H](C)[C@@H](O[C@@H]2O[C@H](C)C[C@H](N(C)C)[C@H]2O)[C@](C)(O)C[C@@H](C)C(=O)[C@H](C)[C@@H](O)[C@]1(C)O [erythromycin]
  IC50: 2000 nM
